According to US20040242641A1, “(1S,5S)-3-(5,6-dichloro-3-pyridinyl)-3,6-diazabicyclo[3.2.0]heptane is an effective analgesic agent” (priority 2003, published 2004):
Like-named read-outs stand apart in the source and are kept apart here.

How the values were obtained:
[1] = target: T1, ganglionic-like nicotinic acetylcholine receptor (nAChR) subtype in IMR-32 human neuroblastoma cells (Homo sapiens, UniProt P30926+P32297); experiment: IMR-32 FLIPR assay, intracellular Ca2+ changes (side effect liability); assay type: cell-based
T1 construct: host or cells: IMR-32 human neuroblastoma cells
Protocol: Cells were plated out at a density of 1×10^6 cells per well on black-walled, clear-bottomed, 96-well plates (Costar, Cambridge, Mass.) and used approximately 72 hours after plating. All plates were coated with polyethylenimine to aid in the adherence of the cells to the plate.
Changes in the intracellular Ca^2+ content of IMR-32 cells were measured using the calcium chelating dye Fluo-4 (Molecular Probes, Eugene, Oreg.) in conjunction with a Fluorescent Imaging Plate Reader (Molecular Devices, Sunnyvale, Calif.). The cell permeant acetoxymethyl (AM) ester form of […] was prepared to a concentration of 1 mM in anhydrous DMSO and 10% pluronic acid. The dye was then diluted to a final concentration of […] in growth media and placed on the cells for 1 hour at 37° C. Black-walled 96-well plates were utilized to reduce light scattering. The unincorporated dye was removed from the cells by excessive washing with the assay buffer (HETES buffer, 20 mM Hepes, 120 mM NaCl, 5 mM KCl, 1 mM MgCl2, 5 mM glucose, […], and 5 mM CaCl2). […] The intensity of the fluorescence was captured by the CCD camera every second for the first minute following the agonist addition with additional readings every 5 seconds for a total time period of 5 minutes. These images were digitally transferred to an interfaced PC and change in fluorescence intensity processed for each well. The exposure setting of the camera was 0.4 sec with an f-stop setting of […].
The IMR-32 FLIPR assay, described herein, measures cation […] that is mediated through the ganglionic-like nicotinic acetylcholine receptor (nAChR) subtype. Agents that facilitate cation […] of the ganglionic nAChR subtype have been linked to side effect liabilty such as cardiovascular pressor effects.

[2] = system: mechanical allodynia in the affected paw of animals that had undergone spinal nerve ligation; experiment: Spinal nerve (L5/L6) ligation neuropathic pain model, mechanical allodynia with von Frey filaments; assay type: in vivo, rat; conditions: for ED50: Rattus norvegicus, read-out: Analgesic Effect ED50
Source text: Male Sprague Dawley rats (80-100 g) were purchased from Charles River (Portage, Mich.). Prior to surgery, animals were group-housed and maintained in a temperature regulated environment (lights on between 7:00 a.m. and 8:00 p.m.). Following nerve ligation surgery, animals were group housed. Rats had access to food and water ad libitum.
The L5 and L6 spinal nerves of anesthesized rats were tightly ligated in the manner described previously by S. H. Kim and J. M. Chung, PAIN 50:355 (1992). Briefly, an incision was made on the dorsal portion of the hip and the muscle was blunt dissected to reveal the spinal processes. The L6 transverse process was removed, and the left L5 and L6 spinal nerves were tightly ligated with 5.0 braided silk suture. The wound was cleaned, the membrane sewn with 4.0 dissolvable Vicryl suture and the skin closed with wound clips.
For the assessment of neuropathic pain, mechanical allodynia in the affected paw of animals that had undergone spinal nerve ligation was evaluated using von Frey filaments. As described previously by S. R. Chaplan, F. W. Bach, J. W. Pogrel, J. M. Chung, and T. L. Yaksh, “Quantitative assessment of tactile allodynia in the rat paw” J. Neurosci. Meth., 53:55-63 (1994) two weeks following surgery, rats were acclimated to the testing box that was constructed of plexiglass with a wire mesh floor to allow access to the planter surface of the hindpaws. Using the Dixons Up-Down method, a baseline level of allodynia was determined to have a withdrawal threshold of <4 g of pressure. […] The EC50 was determined to be 1 μmol/kg.

[3] = target: T2, neuronal nicotinic acetylcholine receptors (Rattus norvegicus, UniProt P09483+P12390); experiment: [3H]-cytisine binding to neuronal nicotinic acetylcholine receptors, crude synaptic membranes from whole rat brain; conditions: [3H]-CYT 1.25 nM, Cheng and Prusoff correction
T2 construct: crude synaptic membrane preparations from whole rat brain; from tissue; host or cells: whole rat brain, crude synaptic membranes
Protocol: (1S,5S)-3-(5,6-Dichloro-3-pyridinyl)-3,6-diazabicyclo [3.2.0]heptane was subjected to an vitro assay against the nicotinic acetylcholine receptor as described below.
Binding of [^3H]-cytisine ([^3H]-CYT) to neuronal nicotinic acetylcholine receptors was accomplished using crude synaptic membrane preparations from whole rat brain (Pabreza et al., Molecular Pharmacol., 1990, 39:9). Washed membranes were stored at −80° C. prior to use. Frozen aliquots were slowly thawed and resuspended in 20 volumes of buffer (containing: 120 mM NaCl, 5 mM KCl, 2 mM MgCl2, 2 mM CaCl2 and 50 mM Tris-Cl, pH 7.4 @4° C.). After centrifuging at 20,000×g for 15 minutes, the pellets were resuspended in 30 volumes of buffer.
Each test compound was dissolved in water to make 10 mM stock solutions, diluted (1 :100) with buffer (as above), and further taken through seven serial log dilutions to produce test solutions from 10^−5 to 10^−11 M.
Homogenate (containing 125-150 μg protein) was added to triplicate tubes containing the range of concentrations of test compound described above and [^3H]-CYT (1.25 nM) in a final volume of 500 μL. […] The filters are counted in 4 mL of Ecolume® (ICN). Nonspecific binding was determined in the presence of 10 μM (−)-nicotine and values were expressed as a percentage of total binding. […]

[4] = system: scopolamine-induced cognitive deficit; experiment: Morris water maze, spatial discrimination version, scopolamine-induced cognitive deficit; assay type: in vivo, rat; conditions: about 0.001 to about 5 μmol/kg, 30 minutes prior to the test; scopolamine-HBr 0.3 mg/kg i.p.
Protocol: Male, Long-Evans rats, 300-400 g, obtained from Charles River laboratories were used in this study. During two daily habituation sessions, rats are trained to find a visible escape platform in a pool (180 cm diameter and 60 cm high) filled to a depth of 37 cm with water made opaque with powdered milk. Water temperature is maintained at 26° C. On the second day of habituation training, latency to escape measures are obtained in order to assure that animals are assigned to groups without swim speed bias. For spatial discrimination training, two visible platforms, covered in aluminum foil, are present. The platforms remain in the same position (diagonal to each other) through 5 days of training. Only one of the platforms provides escape; the other, made of expanded polystyrene, will not support the animals' weight. Rats receive six trials/day, with start position changed from trial to trial. The number of contacts with the incorrect platform (errors) serves as the dependent variable.
A cognitive deficit, as measured by increased number of errors in the water maze test, is induced by i.p. administration of the muscarinic antagonist scopolamine-HBr (0.3 mg/kg), dosed 15 min prior to each daily discrimination training session (over five days total).

[5] = IMR-32, Table 1, relative to nicotine, read-out: IMR-32 activitiy % efficacy
[6] = Table 1, read-out: IMR-32 activitiy EC50
[7] = intraperitoneally 15 minutes before testing

T1 sequence (P32297 32-505): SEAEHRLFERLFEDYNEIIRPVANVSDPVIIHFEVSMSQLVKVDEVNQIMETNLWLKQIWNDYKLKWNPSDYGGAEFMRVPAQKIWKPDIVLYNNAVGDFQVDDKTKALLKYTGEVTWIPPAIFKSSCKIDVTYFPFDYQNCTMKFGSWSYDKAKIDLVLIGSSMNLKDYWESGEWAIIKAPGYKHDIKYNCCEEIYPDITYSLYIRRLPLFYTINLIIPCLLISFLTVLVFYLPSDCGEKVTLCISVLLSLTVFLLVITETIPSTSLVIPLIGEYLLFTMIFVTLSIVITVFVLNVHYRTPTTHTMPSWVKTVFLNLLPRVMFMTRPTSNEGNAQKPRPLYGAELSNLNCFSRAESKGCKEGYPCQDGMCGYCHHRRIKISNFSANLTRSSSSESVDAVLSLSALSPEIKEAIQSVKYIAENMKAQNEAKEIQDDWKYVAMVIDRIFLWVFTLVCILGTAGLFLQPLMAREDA
T1 sequence (P30926 22-498): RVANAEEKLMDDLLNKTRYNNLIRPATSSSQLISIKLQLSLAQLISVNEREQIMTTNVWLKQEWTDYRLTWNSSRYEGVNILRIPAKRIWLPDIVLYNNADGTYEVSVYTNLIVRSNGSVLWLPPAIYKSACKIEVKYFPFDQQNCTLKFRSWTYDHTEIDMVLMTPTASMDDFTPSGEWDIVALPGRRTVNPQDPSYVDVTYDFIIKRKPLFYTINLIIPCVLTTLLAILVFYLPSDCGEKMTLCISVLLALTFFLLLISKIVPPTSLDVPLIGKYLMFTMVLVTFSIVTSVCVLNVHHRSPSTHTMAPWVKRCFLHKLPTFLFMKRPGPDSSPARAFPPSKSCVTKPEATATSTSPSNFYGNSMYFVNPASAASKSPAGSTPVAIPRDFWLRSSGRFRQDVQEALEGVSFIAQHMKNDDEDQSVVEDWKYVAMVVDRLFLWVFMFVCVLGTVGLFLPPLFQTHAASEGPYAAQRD
T2 sequence (P09483 31-630): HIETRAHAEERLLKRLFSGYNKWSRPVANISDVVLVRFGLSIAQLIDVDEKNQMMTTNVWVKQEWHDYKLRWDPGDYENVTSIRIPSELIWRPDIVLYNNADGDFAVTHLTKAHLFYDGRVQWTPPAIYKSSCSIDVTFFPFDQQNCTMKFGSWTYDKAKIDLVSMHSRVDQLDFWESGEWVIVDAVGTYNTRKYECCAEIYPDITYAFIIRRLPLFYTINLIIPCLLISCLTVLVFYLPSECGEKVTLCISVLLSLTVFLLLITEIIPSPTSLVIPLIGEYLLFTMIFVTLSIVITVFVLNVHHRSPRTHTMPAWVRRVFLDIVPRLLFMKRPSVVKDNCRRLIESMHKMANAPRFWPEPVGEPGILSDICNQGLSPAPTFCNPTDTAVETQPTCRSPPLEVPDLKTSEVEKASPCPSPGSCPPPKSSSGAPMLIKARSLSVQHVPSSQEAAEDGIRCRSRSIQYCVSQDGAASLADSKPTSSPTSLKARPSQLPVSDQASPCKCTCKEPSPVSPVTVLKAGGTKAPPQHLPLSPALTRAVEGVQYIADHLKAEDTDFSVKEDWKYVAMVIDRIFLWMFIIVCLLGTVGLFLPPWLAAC
T2 sequence (P12390 25-500): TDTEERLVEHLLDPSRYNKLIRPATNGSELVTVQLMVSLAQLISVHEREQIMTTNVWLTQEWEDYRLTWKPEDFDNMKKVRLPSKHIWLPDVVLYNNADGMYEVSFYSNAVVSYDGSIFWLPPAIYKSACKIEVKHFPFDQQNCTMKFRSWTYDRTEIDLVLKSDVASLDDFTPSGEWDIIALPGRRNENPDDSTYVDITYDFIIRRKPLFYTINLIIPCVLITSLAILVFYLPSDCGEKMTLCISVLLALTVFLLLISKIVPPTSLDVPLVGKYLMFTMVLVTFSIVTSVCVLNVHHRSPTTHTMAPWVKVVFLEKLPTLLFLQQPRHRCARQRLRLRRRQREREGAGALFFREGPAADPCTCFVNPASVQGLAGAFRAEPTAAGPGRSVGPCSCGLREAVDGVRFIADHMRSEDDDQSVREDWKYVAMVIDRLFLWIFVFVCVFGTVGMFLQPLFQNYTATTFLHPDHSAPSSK

Structure (SMILES)	EC50 [1]	Emax [1, 5]	ED50 [2]	EC50 [1, 6]	other results
COc1cncc(N2C[C@@H]3CN[C@@H]3C2)c1 [(1S,5S)-3-(5-methoxy-3-pyridinyl)-3,6-diazabicyclo[3.2.0]heptane]	3800 nM	147%	> 19 µmol/kg	–	–
c1cncc(N2C[C@@H]3CN[C@@H]3C2)c1 [(1S,5S)-3-(3-pyridinyl)-3,6-diazabicyclo[3.2.0]heptane]	–	100%	20 µmol/kg	23200 nM	–
Cc1cc(N2C[C@@H]3CN[C@@H]3C2)cnc1Cl [(1S,5S)-3-(6-chloro-5-methyl-3-pyridinyl)-3,6-diazabicyclo[3.2.0]heptane]	3400 nM	94%	> 19 µmol/kg	–	–
N#Cc1cc(N2C[C@@H]3CN[C@@H]3C2)cnc1Br [2-bromo-5-[(1S,5S)-3,6-diazabicyclo[3.2.0]hept-3-yl]nicotinonitrile]	1200 nM	103%	> 19 µmol/kg	–	–
Clc1cc(N2C[C@@H]3CN[C@@H]3C2)cnc1Br [(1S,5S)-3-(6-bromo-5-chloro-3-pyridinyl)-3,6-diazabicyclo[3.2.0]heptane]	1400 nM	81%	> 19 µmol/kg	–	–
Clc1cc(N2C[C@H]3CN[C@H]3C2)cnc1Cl [(1R,5R)-3-(5,6-dichloro-3-pyridinyl)-3,6-diazabicyclo[3.2.0]heptane]	–	106%	–	78 nM	–
N#Cc1cncc(N2C[C@@H]3CN[C@@H]3C2)c1 [5-[(1S,5S)-3,6-diazabicyclo[3.2.0]hept-3-yl]nicotinonitrile]	–	85%	> 19 µmol/kg	19900 nM	–
Clc1cc(N2C[C@@H]3CN[C@@H]3C2)cnc1Cl [(1S,5S)-3-(5,6-dichloro-3-pyridinyl)-3,6-diazabicyclo[3.2.0]heptane]	–	73%	–	–	Emax ([1]; IMR-32, relative to 100 μM nicotine (100%), read-out: maximum efficacy compared to nicotine): 73%; EC50 ([1]; percent maximal intensity relative to 100 μM nicotine, read-out: EC50 (calcium, IMR-32 cells)): 5500 nM; ED50 ([2]; Table 1): 1 µmol/kg; ED50 (increase in withdrawal threshold) [2, 7]: 1 µmol/kg; effect on withdrawal threshold [2, 7]: dose-dependent increase in the withdrawal threshold; maximum effect on withdrawal threshold ([2]; intraperitoneally 15 minutes before testing, baseline threshold <4 g): 15 g; Ki [3]: 0.1 nM; effect on scopolamine-induced cognitive deficit in water maze (errors) [4]: reversed the cognitive deficit and normalized the performance of the animals in the water maze
Clc1ccc(N2C[C@@H]3CN[C@@H]3C2)cn1 [(1S,5S)-3-(6-chloro-3-pyridinyl)-3,6-diazabicyclo[3.2.0]heptane]	1400 nM	102%	11 µmol/kg	–	–
Clc1ccc(C2CC3CCC2N3)cn1 (stereo not drawn) [epibatidine]	–	–	–	–	Emax ([1]; IMR-32, read-out: maximum efficacy compared to nicotine): 137%
